88 compounds from ChEMBL document CHEMBL1157539, “Thousands of chemical starting points for antimalarial lead identification” (Nature, 2010) can be followed below.

The test system of this assay is Plasmodium falciparum. The assay can be described thus: GSK_TCMDC: Inhibition of Plasmodium falciparum 3D7 in whole erythrocytes, using parasite LDH activity as an index of growth. It is filed as functional, organism-based. The conditions noted are these: Plasmodium falciparum, 3D7.
For the compound `COc1ccc2c(N/N=C/c3ccccc3[N+](=O)[O-])ccnc2c1`, the XC50 came out at 0.739 µM.
The same measure for `CCN(CC)CCN(Cc1ccc(-c2ccc(C(F)(F)F)cc2)cc1)C(=O)Cn1c(/C=C/c2ccco2)nc(=O)c2ccccc21`: 0.87 µM; for `CC1(C(=O)Nc2ccc([N+](=O)[O-])cc2O)CC2c3ccccc3C1c1ccccc12` (stereo not drawn): 0.715 µM.
The figure for `CCN1CCN(Cc2ccc(NC(=O)c3cc4ccc5cccnc5c4[nH]3)cc2)CC1` is 0.848 µM.
As for `O=C(Nc1cc(Cl)cc(Cl)c1)c1cnn(-c2ccc(F)cc2)c1C1CCNCC1`, the XC50 turned out to be 0.853 µM.
As to `COc1ccc2nc3cc(Cl)ccc3c(NCCCN3CCNCC3)c2c1`, the XC50 came to 0.232 µM.
Compound `Nc1ncc(-c2ccccc2)cc1-c1cccc2ncccc12` registered an XC50 of 0.272 µM.
As to `COc1cc(CN2CCC(CO)(Cc3cccc(C(F)(F)F)c3)CC2)c(Cl)cc1O`, the XC50 stood at 0.896 µM.
On to `Nc1nc(-c2ccc3c(Nc4ccc(F)c(Cl)c4)ccnc3c2)cs1`, for which the XC50 was 0.868 µM.
The figure for `CN1CCCc2cc(NC(=O)C=Cc3ccc(-c4ccc(F)cc4F)o3)ccc2C1` is 0.783 µM.
The figure for `CC(C)C[C@H](NC(=O)c1cc2ccccc2s1)C(=O)N[C@H]1CCN(Cc2ccc(OC[C@@H]3CCCN3C)c3ccccc23)C1` is 1.16 µM.
The figure for `COc1cccc(C(=O)Nc2ccc(Nc3nc(C)cc(N(C)C)n3)cc2)c1` is 0.94 µM.
Compound `OCCN1CCN(C(=S)Nc2ccccc2)CC1` yielded an XC50 of 0.936 µM.
The figure for `CC(C)OC(=O)c1ccc(NC(=O)N[C@@H](Cc2ccc(O)cc2)C(=O)NC2CCC(CCN3C4CCC3c3ccccc34)CC2)cc1` (stereo partly drawn) is 0.829 µM.
`O=C(/C=C/c1ccc(Cl)c(Cl)c1)NC1CCN(Cc2cccc(O)c2)CC1` showed an XC50 of 0.88 µM.
`COC(=O)c1ccc2c(-c3nc4ccc(OC)cc4[nH]3)c[nH]c2c1` yielded an XC50 of 0.876 µM.
The same measure for `Cc1cccc(-c2ccc(NC(=O)C3CCN(Cc4cccc(O)c4)CC3)cc2)c1`: 0.975 µM; for `COc1cc2ccccc2c(OC)c1CCNCCCCNCCc1c(OC)cc2ccccc2c1OC`: 0.891 µM.
The figure for `CCCc1c(C(=O)NC2CCC(CN3CCC(c4c[nH]c5ccccc45)CC3)CC2)cnn1-c1ccc(Cl)cc1` (stereo not drawn) is 0.763 µM; for `COc1ccc2nccc([C@@H](O)CN3CCC(NCc4cc5sccc5nc4C(F)(F)F)CC3)c2c1` it is 0.913 µM.
The figure for `Cc1ccccc1C1CCN(C2CCC(NC(=O)/C=C/c3c[nH]c4ccccc34)CC2)CC1` (stereo not drawn) is 0.81 µM; for `CNc1ccc(CNCc2ccc(-c3ccc(-c4nc5cccc(C)c5[nH]4)s3)cc2)cc1` it is 0.661 µM; for `Cc1[nH]c2ccccc2c1C1CCN(CCCCNC(=O)c2ccc(-c3ccc(C#N)cc3)cc2)CC1` it is 0.704 µM.
In turn, `COc1ccccc1CCNc1nc(C)cc(N[C@@H](Cc2ccccc2)C(=O)NCc2cccc(F)c2)n1` had an XC50 of 0.867 µM.
The figure for `CC(C)c1ccc(NC(=O)Nc2ccc(Cn3ncc(N4CCCNCC4)c(Cl)c3=O)cc2)cc1` is 1.05 µM.
`O=C(Nc1ccc(OC2CCN(Cc3ccsc3)C2)c(Cl)c1)c1ccsc1` (stereo not drawn) had an XC50 of 1.02 µM.
Turning to `CN1CCC(C(=O)N(Cc2ccc(-c3ccc(CNCCc4ccccc4)cn3)cc2)C2Cc3ccccc3C2)CC1`, the XC50 turned out to be 1.06 µM.
Regarding `CC(C)(C)CC(C)(C)c1ccc(O)c(CNC2CCCCC2)c1`, the XC50 was 0.0649 µM.
The same measure for `CC(C)(C)c1ccc(CN2CCC(NC(=O)c3ccc(-c4ccccc4Cl)s3)CC2)cc1`: 1.35 µM; for `CC(C)COc1ccc(Cl)cc1Cc1ccc(-c2nc3ccc(F)cc3[nH]2)o1`: 0.854 µM.
`CC1CCNc2ccc(Cc3cnc(N)nc3N)cc21` (stereo not drawn) yielded an XC50 of 1.04 µM.
The figure for `N=c1sc2ccccc2n1CC(O)c1ccc(Cl)c(Cl)c1` (stereo not drawn) is 0.8 µM; for `Nc1c2c(nc3ccc(Oc4ccc(Cl)cc4)cc13)CCCC2` it is 0.972 µM.
The same measure for `C=CCn1c(SCC(=O)Nc2cc(C)ccc2OC)nc2sc(C)cc2c1=O`: 0.417 µM; for `CCCOc1cccc(C(=O)N[C@@H](Cc2ccccc2)[C@H](O)CNCc2ccccc2OC)c1`: 0.883 µM; for `O=C(Nc1cc(C(F)(F)F)cc(C(F)(F)F)c1)c1cc(C(F)(F)F)cc(C(F)(F)F)c1`: 0.872 µM.
The figure for `COc1ccc2nccc([C@@H](O)CN3CCC(NCCOc4cccc(F)c4F)CC3)c2c1` is 0.244 µM; for `COc1ccc(-c2ccc(NC(=O)c3cccc(C#N)c3)cc2)cc1CN1CCNCC1` it is 0.728 µM.
Consider `COc1ccccc1CCNc1nc(C)cc(N[C@@H](Cc2ccccc2)C(=O)NCCc2ccccc2)n1`, for which the XC50 worked out at 1.11 µM.
The same measure for `CC(Cc1ccc(OCCCCOc2ccccc2)cc1)NCCCn1ccnc1` (stereo not drawn): 0.167 µM; for `COc1cc(NCC(O)CNc2cc(Cl)nc3ccccc23)nc2ccccc12` (stereo not drawn): 0.416 µM.
The same measure for `O=C(COc1ccc(Cl)c(Cl)c1)NCCCCCN1CCCN(C(=O)Nc2cc(Cl)cc(Cl)c2)CC1`: 1.14 µM; for `CC(C)C[C@@H](NC(=O)NC1CCC(CCN2C3CCC2CC(OC(=O)C(CO)c2ccccc2)C3)CC1)C(O)(c1ccccc1)c1ccccc1` (stereo partly drawn): 1.07 µM.
`Cc1cc(=NN=Cc2ccccc2F)c2ccccc2[nH]1` had an XC50 of 0.919 µM.
As for `C[C@@H](COc1ccc(-c2ccccc2)cc1)CON1C(N)=NC(N)=NC1(C)C`, the XC50 amounted to 0.0032 µM.
As to `N=c1n(CCN2CCCCC2)c2ccccc2n1CC(O)c1ccc(Cl)c(Cl)c1` (stereo not drawn), the XC50 was determined as 0.32 µM.
In the case of `O=C(NCCCCN1CCC(c2ccc(-c3ccco3)cc2)CC1)c1ccc(NC(=O)c2ccc(Cl)cc2)cc1`, the XC50 worked out at 0.538 µM.
The figure for `CC/N=C(/NCCCCCCN/C(=N/CC)NCc1ccccc1)NCc1ccccc1` is 0.702 µM; for `OCCN1CCN(Cc2ccc(-c3ccc(-c4nc5cc(C(F)(F)F)ccc5[nH]4)s3)cc2)CC1` it is 0.379 µM; for `O=C(NCCCN1CCCC1=O)c1cnc(N2CCC(Oc3ccccc3)CC2)c(Cl)c1` it is 0.305 µM.
The figure for `Cc1ccc(Nc2nc(C)cc(Nc3cccc(C#N)c3)n2)cc1` is 0.978 µM; for `N#Cc1cccc(C(=O)Nc2cccc(-c3ccc(CN4CCC(O)CC4)cc3)c2)c1` it is 1.3 µM; for `O=C(Nc1cccc(Cl)c1N1CCOCC1)C(Cl)(Cl)Cl` it is 0.983 µM.
`Cc1nc(C)c(-c2ccc(S(=O)(=O)c3ccc(Cl)cc3)cc2)c(O)c1Cl`: the XC50 was 0.14 µM.
In turn, `Cc1cccc2nc(-c3cccc(-c4cccc(NC(=O)C(C)CN5CCN(C)CC5)c4)c3)[nH]c12` (stereo not drawn) had an XC50 of 0.537 µM.
As to `NC(=O)c1cnc2ccc(-c3cncs3)cc2c1Nc1ccc(F)c(Cl)c1`, the XC50 turned out to be 0.182 µM.
The figure for `NC1CCCN(Cc2cccc(-c3ccc(-c4nc5cc(C(F)(F)F)ccc5[nH]4)cc3)c2)C1` (stereo not drawn) is 0.518 µM.
As to `FC(F)(F)c1ccc2c(NCCc3ccccc3)ccnc2c1`, the XC50 was determined as 1.27 µM.
The figure for `CN(C(=O)NCCc1ccccc1)C1CCN(CCCCCNC(=O)/C=C/c2ccc(Cl)c(Cl)c2)CC1` is 0.678 µM; for `CCNC(=O)Nc1cccc(-c2ccc(-c3nc4cccc(C)c4[nH]3)s2)c1` it is 0.766 µM; for `CC(=O)Nc1cccc(CNc2cc(C)nc(Nc3ccc(C)cc3)n2)c1` it is 1.14 µM.
With `COc1ccc(NC(=O)NCC2CCCN(CCCCCNC(=O)/C=C/c3ccc(Cl)c(Cl)c3)C2)c(OC)c1` (stereo not drawn), the XC50 is 0.859 µM.
The figure for `O=C(Nc1ccc(C(F)(F)F)cc1)c1cc(Br)cnc1NCCCn1ccnc1` is 0.968 µM.
The figure for `COc1cc(Cc2cnc(N)nc2N)ccc1OCc1cccc(Oc2ccccc2)c1` is 1.33 µM; for `Cc1cccc2nc(-c3cccc(-c4cccc(C(=O)NCCN5CCCC5)c4)c3)[nH]c12` it is 0.833 µM; for `COc1cccc(CNC[C@@H](O)[C@H](Cc2ccccc2)NC(=O)c2cc(OC(C)C)cc(N3CCCCS3(=O)=O)c2)c1` it is 0.73 µM.
The same measure for `COc1nc2c(CCN3CC[C@H](NCc4cc(C#N)c5c(c4)OCCO5)[C@H](O)C3)ccnc2cc1F`: 0.783 µM; for `CN(C)C(=O)c1cc(CNCc2ccccc2)ccc1-c1cccc(CNCc2ccc(-c3ccccc3)cc2)c1`: 1.05 µM; for `CCN(CC)c1ccccc1CNC(=O)c1cc(Cl)c(N)cc1OC`: 0.213 µM.
Compound `N#Cc1ccc(CN2CCC(Oc3ccc(NC(=O)c4ccsc4)cc3Cl)C2)cc1` (stereo not drawn) showed an XC50 of 0.674 µM.
The same measure for `CC(=O)Nc1ccc(C#Cc2ccc(-c3c(C)[nH]c(C)c(Cl)c3=O)cc2)cc1`: 0.462 µM; for `CC(C)N1CCN(CCCCNc2c3ccccc3nc3ccccc23)CC1`: 0.54 µM.
With `O=C1Nc2ccc3ncccc3c2/C1=C/Nc1ccc(N2CCN(CCO)CC2)cc1`, the XC50 was found to be 1.27 µM.
The same measure for `COc1ccc(-c2ccc(NC(=O)c3ccc(C#N)cc3)cc2)cc1CN1CCNCC1`: 0.505 µM.
The same measure for `NC(=O)c1ccsc1NC(=O)CNC(c1ccccc1)c1ccccc1`: 0.938 µM; for `COc1ccc2nc3cc(Cl)ccc3c(NCCNCC(O)CO)c2n1` (stereo not drawn): 0.152 µM; for `O=C(C1CCCCC1)N1CCOC(CCN2CCC(c3ccccc3)CC2)(c2ccc(Cl)c(Cl)c2)C1` (stereo not drawn): 0.93 µM.
The same measure for `CC1(CCc2ccccc2)N=C(Nc2ccc(Cl)cc2)N=C(N)C1c1ccc(Cl)c(Cl)c1` (stereo not drawn): 0.221 µM.
For the compound `COc1ccc(NC(=O)Nc2nc3ccccc3s2)cc1N1CCN(C)CC1`, the XC50 came to 0.703 µM.
The same measure for `COc1cc(C(=O)Nc2ccc3nc(N4CCN(C)CC4)cc(C)c3c2)cc(OC)c1OC`: 0.289 µM; for `COc1cc2c(cc1N1CC(C)NC(C)C1)N(C(=O)c1ccc(-c3ccc(-c4ncc[nH]4)cc3C)cc1)CC2` (stereo not drawn): 0.717 µM.
The figure for `O=C(C1CC1)N1c2ccccc2CCc2ccccc21` is 0.833 µM; for `O=S(=O)(NCCN1CCCC1)c1ccc(-c2ccc(CNCc3ccccc3)cc2)cc1F` it is 1.29 µM.
Regarding `O=C1Nc2cccc3c2C1(CCCCCN1CCC(c2c[nH]c4ccncc24)CC1)CCC3` (stereo not drawn), the XC50 was found to be 0.99 µM.
The figure for `CCNc1cc(C(=O)N[C@@H](Cc2ccccc2)[C@H](O)CNC2CC3CCC2C3)cc(N2CCCCS2(=O)=O)c1` (stereo partly drawn) is 0.237 µM.
The figure for `CCC[C@@H]([C@@H](CC(C)C)C(=O)N[C@@H](CCCCNC(=O)c1cccc(OC)c1)C(=O)Nc1nccs1)N(O)C=O` is 0.104 µM; for `Nc1n[nH]c(-c2ccccc2Nc2ccnc3cc(-c4nccs4)ccc23)n1` it is 1.12 µM.
The figure for `COc1cc(SC)ccc1C(=O)N1CC(C)CC(C)C1` (stereo not drawn) is 0.354 µM.
